# System: 415267-285-R-J2-PDC complex spheroid viability
# Assay: Anticancer human tumor 415267-285-R-J2-PDC patient-derived breast carcinoma cell line growth inhibition [POLQ]
# Settings: for IC50: curve of first compound; for viability, T/C: stronger effect = lower value
# Outline: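 PDC + HUVEC + MSC complex spheroids; POLQ inhibitors ± partner drugs; top conc. at/near clinical Cmax, else 10 microM (SN-38 1 microM), half-log dilutions; 37 degrees C, 5% CO2.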
# [1] = second compound 0.0316 µM, first compound 0.0316 µM
# [2] = second compound 0.0316 µM, first compound 0.1 µM
# [3] = second compound 0.0316 µM, first compound 0.316 µM
# [4] = second compound 0.0316 µM, first compound 1 µM
# [5] = second compound 0.1 µM, first compound 0.0316 µM
# [6] = second compound 0.1 µM, first compound 0.1 µM
# [7] = second compound 0.1 µM, first compound 0.316 µM
# [8] = second compound 0.1 µM, first compound 1 µM
# [9] = second compound 0.316 µM, first compound 0.0316 µM
# [10] = second compound 0.316 µM, first compound 0.1 µM
# [11] = second compound 0.316 µM, first compound 0.316 µM
# [12] = second compound 0.316 µM, first compound 1 µM
# [13] = second compound 1 µM, first compound 0.0316 µM
# [14] = second compound 1 µM, first compound 0.1 µM
# [15] = second compound 1 µM, first compound 0.316 µM
# [16] = second compound 1 µM, first compound 1 µM
# [17] = second compound 3.16 µM, first compound 0.0316 µM
# [18] = second compound 3.16 µM, first compound 0.1 µM
# [19] = second compound 3.16 µM, first compound 0.316 µM
# [20] = second compound 3.16 µM, first compound 1 µM
# [21] = second compound 10 µM, first compound 0.0316 µM
# [22] = second compound 10 µM, first compound 0.1 µM
# [23] = second compound 10 µM, first compound 0.316 µM
# [24] = second compound 10 µM, first compound 1 µM
# [25] = second compound 0.0316 µM, first compound 3.16 µM
# [26] = second compound 0.0316 µM, first compound 10 µM
# [27] = second compound 0.1 µM, first compound 3.16 µM
# [28] = second compound 0.1 µM, first compound 10 µM
# [29] = second compound 0.316 µM, first compound 3.16 µM
# [30] = second compound 0.316 µM, first compound 10 µM
# [31] = second compound 1 µM, first compound 3.16 µM
# [32] = second compound 1 µM, first compound 10 µM
# [33] = second compound 3.16 µM, first compound 3.16 µM
# [34] = second compound 3.16 µM, first compound 10 µM
# [35] = second compound 10 µM, first compound 3.16 µM
# [36] = second compound 10 µM, first compound 10 µM
# 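Further: spheroids exposed to compounds for one week before readout.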
# 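Wherever viability, T/C is given: luminescence used as stand-in measure of viable cells; 100% = DMSO vehicle control viability.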
compound,measurement,setting,value
C=CCn1c(=O)c2cnc(Nc3ccc(N4CCN(C)CC4)cc3)nc2n1-c1cccc(C(C)(C)O)n1 + Nc1ccc(C#CCN(C(=O)Cc2ncc(C(F)(F)F)cc2C(F)(F)F)c2ccc(F)cc2)nn1,IC50,second compound 0.0316 µM,447 nM
same,IC50,second compound 0.1 µM,404 nM
same,IC50,second compound 0.316 µM,427 nM
same,IC50,second compound 1 µM,396 nM
same,IC50,second compound 3.16 µM,342 nM
same,IC50,second compound 10 µM,318 nM
same,"viability, T/C","second compound 0.0316 µM, first compound 0.00316 µM",95.1%
same,"viability, T/C","second compound 0.0316 µM, first compound 0.01 µM",102%
same,"viability, T/C",[1],94.8%
same,"viability, T/C",[2],98.2%
same,"viability, T/C",[3],69%
same,"viability, T/C",[4],5.9%
same,"viability, T/C","second compound 0.1 µM, first compound 0.00316 µM",107%
same,"viability, T/C","second compound 0.1 µM, first compound 0.01 µM",104%
same,"viability, T/C",[5],102%
same,"viability, T/C",[6],87.6%
same,"viability, T/C",[7],62.2%
same,"viability, T/C",[8],6.38%
same,"viability, T/C","second compound 0.316 µM, first compound 0.00316 µM",108%
same,"viability, T/C","second compound 0.316 µM, first compound 0.01 µM",108%
same,"viability, T/C",[9],86.9%
same,"viability, T/C",[10],96.3%
same,"viability, T/C",[11],65.5%
same,"viability, T/C",[12],5.51%
same,"viability, T/C","second compound 1 µM, first compound 0.00316 µM",104%
same,"viability, T/C","second compound 1 µM, first compound 0.01 µM",95%
same,"viability, T/C",[13],101%
same,"viability, T/C",[14],87%
same,"viability, T/C",[15],61.1%
same,"viability, T/C",[16],4.94%
same,"viability, T/C","second compound 3.16 µM, first compound 0.00316 µM",106%
same,"viability, T/C","second compound 3.16 µM, first compound 0.01 µM",93.1%
same,"viability, T/C",[17],95.3%
same,"viability, T/C",[18],92.5%
same,"viability, T/C",[19],53%
same,"viability, T/C",[20],7.32%
same,"viability, T/C","second compound 10 µM, first compound 0.00316 µM",94.3%
same,"viability, T/C","second compound 10 µM, first compound 0.01 µM",95.5%
same,"viability, T/C",[21],107%
same,"viability, T/C",[22],91.7%
same,"viability, T/C",[23],50.3%
same,"viability, T/C",[24],5.62%
CC1COCCN1c1cc(C2(O)CC3CCC(C2)O3)c2cnn(-c3ccn[nH]3)c2n1 (stereo unspecified) + COC1C(OC(N)=O)C(O)C(Oc2ccc3c(O)c(NC(=O)c4ccc(O)c(CC=C(C)C)c4)c(=O)oc3c2C)OC1(C)C,IC50,second compound 0.0316 µM,< 31.6 nM
same,IC50,second compound 0.1 µM,< 31.6 nM
same,IC50,second compound 0.316 µM,< 31.6 nM
same,IC50,second compound 1 µM,< 31.6 nM
same,IC50,second compound 3.16 µM,< 31.6 nM
same,IC50,second compound 10 µM,< 31.6 nM
same,"viability, T/C",[1],17.2%
same,"viability, T/C",[2],6.83%
same,"viability, T/C",[3],8.23%
same,"viability, T/C",[4],5.44%
same,"viability, T/C",[25],4.27%
same,"viability, T/C",[26],4.51%
same,"viability, T/C",[5],17.1%
same,"viability, T/C",[6],6.51%
same,"viability, T/C",[7],4.34%
same,"viability, T/C",[8],4.52%
same,"viability, T/C",[27],3.9%
same,"viability, T/C",[28],4.57%
same,"viability, T/C",[9],22.7%
same,"viability, T/C",[10],9.96%
same,"viability, T/C",[11],4.64%
same,"viability, T/C",[12],3.57%
same,"viability, T/C",[29],5.27%
same,"viability, T/C",[30],4%
same,"viability, T/C",[13],27.2%
same,"viability, T/C",[14],6.76%
same,"viability, T/C",[15],4.22%
same,"viability, T/C",[16],4.87%
same,"viability, T/C",[31],4.41%
same,"viability, T/C",[32],3.65%
same,"viability, T/C",[17],21%
same,"viability, T/C",[18],8.52%
same,"viability, T/C",[19],4.99%
same,"viability, T/C",[20],4.02%
same,"viability, T/C",[33],4.45%
same,"viability, T/C",[34],4.43%
same,"viability, T/C",[21],29.5%
same,"viability, T/C",[22],7.77%
same,"viability, T/C",[23],5.61%
same,"viability, T/C",[24],5.07%
same,"viability, T/C",[35],4.2%
same,"viability, T/C",[36],4.18%
CCc1cc2c(N3CCc4c(cc(Cn5ccnc5)cc4-c4cn(C)nc4C(F)(F)F)C3=O)ccnc2c(OC)n1 + Cc1cccc(N(C)C(=O)C2C(O)CCN2c2nc(C)cc(C(F)(F)F)c2C#N)c1,IC50,second compound 0.0316 µM,> 10000 nM
same,IC50,second compound 0.1 µM,> 10000 nM
same,IC50,second compound 0.316 µM,> 10000 nM
same,IC50,second compound 1 µM,> 10000 nM
same,IC50,second compound 3.16 µM,> 10000 nM
same,IC50,second compound 10 µM,> 10000 nM
same,"viability, T/C",[1],88.4%
same,"viability, T/C",[2],94.8%
same,"viability, T/C",[3],88.7%
same,"viability, T/C",[4],86.2%
same,"viability, T/C",[25],92.8%
same,"viability, T/C",[26],79.2%
same,"viability, T/C",[5],102%
same,"viability, T/C",[6],99.8%
same,"viability, T/C",[7],80.2%
same,"viability, T/C",[8],89%
same,"viability, T/C",[27],95.4%
same,"viability, T/C",[28],77.2%
same,"viability, T/C",[9],105%
same,"viability, T/C",[10],96.1%
same,"viability, T/C",[11],88.5%
same,"viability, T/C",[12],88.7%
same,"viability, T/C",[29],89.8%
same,"viability, T/C",[30],88.7%
same,"viability, T/C",[13],92.3%
same,"viability, T/C",[14],91.5%
same,"viability, T/C",[15],88.1%
same,"viability, T/C",[16],88.2%
same,"viability, T/C",[31],91.2%
same,"viability, T/C",[32],86.2%
same,"viability, T/C",[17],102%
same,"viability, T/C",[18],98.3%
same,"viability, T/C",[19],82.3%
same,"viability, T/C",[20],101%
same,"viability, T/C",[33],92.2%
same,"viability, T/C",[34],85.4%
same,"viability, T/C",[21],100%
same,"viability, T/C",[22],100%
same,"viability, T/C",[23],99.6%
same,"viability, T/C",[24],99.8%
same,"viability, T/C",[35],82.5%
same,"viability, T/C",[36],77.8%
